{
  "source": "patent US20160159814A1",
  "about": "“GLYCINE TRANSPORTER INHIBITOR” (TAISHO PHARMACEUTICAL CO., LTD., priority 2013, published 2016)",
  "data": [
    {"biological_target": "T1, human type 1 glycine transporter (GlyT1) (Homo sapiens, UniProt P48067)", "T1 construct": "T98G cells (glioma cells) expressing human type 1 glycine transporter (GlyT1) were used; endogenous in cells; host or cells: T98G cells (human glioma cells)", "T1 sequence (P48067 1-706)": "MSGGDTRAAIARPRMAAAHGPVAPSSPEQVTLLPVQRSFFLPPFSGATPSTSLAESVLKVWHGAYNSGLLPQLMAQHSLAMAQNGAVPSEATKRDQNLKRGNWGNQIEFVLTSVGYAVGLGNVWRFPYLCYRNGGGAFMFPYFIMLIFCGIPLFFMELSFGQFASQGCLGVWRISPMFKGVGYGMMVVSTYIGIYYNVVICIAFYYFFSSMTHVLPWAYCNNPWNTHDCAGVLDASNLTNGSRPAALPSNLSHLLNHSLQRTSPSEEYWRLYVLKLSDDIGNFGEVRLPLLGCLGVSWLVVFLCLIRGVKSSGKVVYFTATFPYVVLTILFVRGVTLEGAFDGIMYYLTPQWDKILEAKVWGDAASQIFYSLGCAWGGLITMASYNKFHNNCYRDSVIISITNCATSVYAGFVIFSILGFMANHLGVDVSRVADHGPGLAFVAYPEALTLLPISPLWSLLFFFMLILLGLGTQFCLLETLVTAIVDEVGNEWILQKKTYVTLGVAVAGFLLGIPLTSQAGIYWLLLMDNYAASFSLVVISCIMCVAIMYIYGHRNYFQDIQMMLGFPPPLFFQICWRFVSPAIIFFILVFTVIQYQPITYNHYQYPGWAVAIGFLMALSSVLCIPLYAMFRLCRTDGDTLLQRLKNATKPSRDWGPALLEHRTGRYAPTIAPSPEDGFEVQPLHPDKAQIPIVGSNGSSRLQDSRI", "assay": "Glycine uptake inhibition experiment ([3H] glycine uptake in T98G cells expressing GlyT1)", "format": "cell-based", "settings": "not given", "in_short": "(§1)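 T98G glioma cells expressing human GlyT1 were pretreated 10 min with compound in HEPES buffer pH 7.4 (0.2% BSA), then incubated with compound plus 250 nM final [3H]glycine for 15 min at room temperature. Intracellular radioactivity was counted after NaOH lysis; 10 μM ALX5407 defined non-specific uptake. IC50 came from 10^−9–10^−5 M curves.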", "units": {"IC50": "nM"}, "values": [
      {"compound": "COc1cc(Cl)ncc1CN1C(=O)C(F)(F)c2c([C@H](C)O)cccc21", "note": "[Compound 231, 1-[(6-chloro-4-methoxypyridin-3-yl)methyl]-3,3-difluoro-4-[(1S)-1-hydroxyethyl]-1,3-dihydro-2H-indol-2-one]", "IC50": 140},
      {"compound": "C[C@H](O)c1cccc2c1C(F)(F)C(=O)N2Cc1ncccc1Br", "note": "[Compound 211, 1-[(3-bromopyridin-2-yl)methyl]-3,3-difluoro-4-[(1S)-1-hydroxyethyl]-1,3-dihydro-2H-indol-2-one]", "IC50": 85},
      {"compound": "CC(O)c1c(F)ccc2c1C(F)(F)C(=O)N2Cc1cncc(Cl)c1", "note": "(single isomer, unassigned) [Compound 183, 1-[(5-chloropyridin-3-yl)methyl]-3,3,5-trifluoro-4-(1-hydroxyethyl)-1,3-dihydro-2H-indol-2-one]", "IC50": 6.7},
      {"compound": "C[C@H](O)c1cccc2c1C(F)(F)C(=O)N2Cc1cnc(F)c(C#N)c1", "note": "[Compound 235, 5-({3,3-difluoro-4-[(1S)-1-hydroxyethyl]-2-oxo-2,3-dihydro-1H-indol-1-yl}methyl)-2-fluoropyridine-3-carbonitrile]", "IC50": 23},
      {"compound": "C[C@H](O)c1cccc2c1C(F)(F)C(=O)N2Cc1ncccc1Cl", "note": "[Compound 206, 1-[(3-chloropyridin-2-yl)methyl]-3,3-difluoro-4-[(1S)-1-hydroxyethyl]-1,3-dihydro-2H-indol-2-one]", "IC50": 60},
      {"compound": "O=C1N(Cc2ccc(C(F)(F)F)nc2)c2cccc(C(O)C(F)F)c2C1(F)F", "note": "(single isomer, unassigned) [Compound 161, 4-(2,2-difluoro-1-hydroxyethyl)-3,3-difluoro-1-{[6-(trifluoromethyl)pyridin-3-yl]methyl}-1,3-dihydro-2H-indol-2-one]", "IC50": 90},
      {"compound": "C[C@H](O)c1cccc2c1C(F)(F)C(=O)N2Cc1ccnc(OC(F)F)c1", "note": "[Compound 194, 1-{[2-(difluoromethoxy)pyridin-4-yl]methyl}-3,3-difluoro-4-[(1S)-1-hydroxyethyl]-1,3-dihydro-2H-indol-2-one]", "IC50": 43},
      {"compound": "C[C@H](O)c1cccc2c1C(F)(F)C(=O)N2Cc1ccnc(C#N)c1Cl", "note": "[Compound 192]", "IC50": 67},
      {"compound": "O=C1N(Cc2cncc(Cl)c2)c2c(F)ccc(C(O)C(F)F)c2C1(F)F", "note": "(centres unmarked) [Compound 252, 1-[(5-chloropyridin-3-yl)methyl]-4-(2,2-difluoro-1-hydroxyethyl)-3,3,7-trifluoro-1,3-dihydro-2H-indol-2-one]", "IC50": 46},
      {"compound": "C[C@H](O)c1cccc2c1C(F)(F)C(=O)N2Cc1ccnc(C#N)c1F", "note": "[Compound 173, 4-({3,3-difluoro-4-[(1S)-1-hydroxyethyl]-2-oxo-2,3-dihydro-1H-indol-1-yl}methyl)-3-fluoropyridine-2-carbonitrile]", "IC50": 19},
      {"compound": "C[C@H](O)c1cccc2c1C(F)(F)C(=O)N2Cc1ncc(F)cc1Br", "note": "[Compound 226, 1-[(3-bromo-5-fluoropyridin-2-yl)methyl]-3,3-difluoro-4-[(1S)-1-hydroxyethyl]-1,3-dihydro-2H-indol-2-one]", "IC50": 40},
      {"compound": "COc1nc(C(F)(F)F)ccc1CN1C(=O)C(F)(F)c2c([C@H](C)O)cccc21", "note": "[Compound 243, 3,3-difluoro-4-[(1S)-1-hydroxyethyl]-1-({2-methoxy-6-(trifluoromethyl)pyridin-3-yl]methyl}-1,3-dihydro-2H-indol-2-one]", "IC50": 57}
    ]},
    {"biological_target": "T1, human type 1 glycine transporter (GlyT1)", "assay": "Glycine uptake inhibition experiment ([3H] glycine uptake in T98G cells expressing GlyT1)", "format": "cell-based", "settings": "glycine uptake inhibition", "in_short": "as §1", "units": {"IC50": "nM"}, "values": [
      {"compound": "C[C@H](O)c1cccc2c1C(F)(F)C(=O)N2Cc1nc2ccccc2[nH]c1=O", "note": "[Compound 98, 3-({3,3-difluoro-4-[(1S)-1-hydroxyethyl]-2-oxo-2,3-dihydro-1H-indol-1-yl}methyl) quinoxalin-2(1H)-one]", "IC50": 34},
      {"compound": "O=C1N(Cc2cccc(Cl)n2)c2cccc(CO)c2C1(F)F", "note": "[Compound 16, 1-[(6-chloropyridin-2-yl)methyl]-3,3-difluoro-4-(hydroxymethyl)-1,3-dihydro-2H-indol-2-one]", "IC50": 140},
      {"compound": "N#Cc1cc(CN2C(=O)C(F)(F)c3c(C(O)C(F)F)cccc32)ccn1", "note": "(single isomer, unassigned) [Compound 109, 4-{[4-(2,2-difluoro-1-hydroxyethyl]-3,3-difluoro-2-oxo-2,3-dihydro-1H-indol-1-yl]methyl}pyridine-2-carbonitrile]", "IC50": 88},
      {"compound": "C[C@H](O)c1cccc2c1C(F)(F)C(=O)N2Cc1ccc(Cl)nc1", "note": "[Compound 102, 1-[(6-chloropyridin-3-yl)methyl]-3,3-difluoro-4-[(1S)-1-hydroxyethyl]-1,3-dihydro-2H-indol-2-one]", "IC50": 91},
      {"compound": "C[C@H](O)c1cccc2c1C(F)(F)C(=O)N2Cc1nc2ccccc2n1C", "note": "[Compound 75, 3,3-difluoro-4-[(1S)-1-hydroxyethyl]-1-[(1-methyl-1H-benzimidazol-2-yl)methyl]-1,3-dihydro-2H-indol-2-one]", "IC50": 34},
      {"compound": "C[C@H](O)c1cccc2c1C(F)(F)C(=O)N2Cc1cccc(-n2cncn2)n1", "note": "[Compound 62, 3,3-difluoro-4-[(1S)-1-hydroxyethyl]-1-{[6-(1H-1,2,4-triazol-1-yl)pyridin-2-yl]methyl}-1,3-dihydro-2H-indol-2-one]", "IC50": 230},
      {"compound": "O=C1N(Cc2cc(Cl)ccn2)c2cccc([C@@H](O)C(F)(F)F)c2C1(F)F", "note": "[Compound 145, 1-[(4-chloropyndin-2-yl)methyl]-3,3-difluoro-4-[(1R)-2,2,2-trifluoro-1-hydroxyethyl]-1,3-dihydro-2H-indol-2-one]", "IC50": 43},
      {"compound": "C[C@H](O)c1cccc2c1C(F)(F)C(=O)N2Cc1nnc2ccccc2n1", "note": "[Compound 105, 1-(1,2,4-benzotriazin-3-ylmethyl)-3,3-difluoro-4-[(1S)-1-hydroxyethyl]-1,3-dihydro-2H-indol-2-one]", "IC50": 1000},
      {"compound": "C[C@H](O)c1cccc2c1C(F)(F)C(=O)N2Cc1nc2ccccc2s1", "note": "[Compound 73, 1-(1,3-benzothiazol-2-ylmethyl)-3,3-difluoro-4-[(1S)-1-hydroxyethyl]-1,3-dihydro-2H-indol-2-one]", "IC50": 37},
      {"compound": "C[C@H](O)c1cccc2c1C(F)(F)C(=O)N2Cc1nc2ncccc2c(=O)n1C", "note": "[Compound 108, 2-({3,3-difluoro-4-[(1S)-1-hydroxyethyl]-2-oxo-2,3-dihydro-1H-indol-1-yl}methyl)-3-methylpyrido[2,3-d]pyrimidin-4(3H)-one]", "IC50": 240},
      {"compound": "N#Cc1cc(CN2C(=O)C(F)(F)c3c(C(O)C(F)(F)F)cccc32)ccn1", "note": "(single isomer, unassigned) [Compound 20, 4-{[3,3-difluoro-2-oxo-4-(2,2,2-trifluoro-1-hydroxyethyl)-2,3-dihydro-1H-indol-1-yl]methyl}pyridine-2-carbonitrile]", "IC50": 2900},
      {"compound": "Cn1c(CN2C(=O)C(F)(F)c3c([C@@H](O)C(F)(F)F)cccc32)nc2ccccc21", "note": "[Compound 137]", "IC50": 150},
      {"compound": "C[C@H](O)c1cccc2c1C(F)(F)C(=O)N2Cc1cncc(C(F)(F)F)c1", "note": "[Compound 121]", "IC50": 39},
      {"compound": "O=C1N(Cc2ccnc(F)c2)c2cccc([C@@H](O)C(F)(F)F)c2C1(F)F", "note": "[Compound 149, 3,3-difluoro-1-[(2-fluoropyridin-4-yl)methyl]-4-[(1R)-2,2,2-trifluoro-1-hydroxyethyl]-1,3-dihydro-2H-indol-2-one]", "IC50": 200},
      {"compound": "O=C1N(Cc2ccnc(F)c2)c2cccc(C(O)C(F)F)c2C1(F)F", "note": "(centres unmarked) [Compound 150, 4-(2,2-difluoro-1-hydroxyethyl)-3,3-difluoro-1-[(2-fluoropyridin-4-yl)methyl]-1,3-dihydro-2H-indol-2-one]", "IC50": 310},
      {"compound": "C[C@H](O)c1cccc2c1C(F)(F)C(=O)N2Cc1c2ccccc2nn1C", "note": "[Compound 93]", "IC50": 54},
      {"compound": "O=C1N(Cc2cccc(Cl)n2)c2cccc(C(O)C(F)F)c2C1(F)F", "note": "(single isomer, unassigned) [Compound 126, 1-[(6-chloropyridin-2-yl)methyl]-4-(2,2-difluoro-1-hydroxyethyl)-3,3-difluoro-1,3-dihydro-2H-indol-2-one]", "IC50": 7.9}
    ]},
    {"biological_target": "T1, human type 1 glycine transporter (GlyT1)", "assay": "Glycine uptake inhibition experiment ([3H] glycine uptake in T98G cells expressing GlyT1)", "format": "cell-based", "settings": "table section whose head prints (μm)", "in_short": "as §1", "units": {"IC50": "nM"}, "values": [
      {"compound": "O=C1N(Cc2cccc(C(F)(F)F)n2)c2cccc(C(O)C(F)F)c2C1(F)F", "note": "(single isomer, unassigned) [Compound 257, 4-(2,2-difluoro-1-hydroxyethyl)-3,3-difluoro-1-{[6-(trifluoromethyl)pyridin-2-yl]methyl)-1,3-dihydro-2H-indol-2-one]", "IC50": 110},
      {"compound": "N#Cc1cc(CN2C(=O)C(F)(F)c3c(C(O)C(F)F)cccc32)cc(Cl)n1", "note": "(single isomer, unassigned) [Compound 264, 6-chloro-4-{[4-(2,2-difluoro-1-hydroxyethyl)-3,3-difluoro-2-oxo-2,3-dihydro-1H-indol-1-yl]methyl}pyridine-2-carbonitrile]", "IC50": 170},
      {"compound": "O=C1N(Cc2cc(Cl)c(F)cn2)c2cccc(C(O)C(F)F)c2C1(F)F", "note": "(single isomer, unassigned) [Compound 266, 1-[(4-chloro-5-fluoropyridin-2-yl)methyl]-4-(2,2-difluoro-1-hydroxyethyl)-3,3-difluoro-1,3-dihydro-2H-indol-2-one]", "IC50": 21}
    ]}
  ]
}
